Experimental data from paper PMC12300041, “Tricyclic Isatin Derivatives as Anti-Inflammatory Compounds with High Kinase Binding Affinity” (Molecules, 2025).

Columns and labels:
Test in all cases: KINOMEscan
Type in all cases: binding
TAOK3 = biological target: T1, TAOK3 (Homo sapiens, UniProt Q9H2K8)
T1 construct: purchased Eurofins DiscoverX KINOMEscan
Summary of the method: (§1)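 Read-out is qPCR of kinase not bound to the test compound, recovered by capture on an immobilized affinity ligand after a 1 h room-temperature binding step. Dissociation constants came from 12 half-log dilutions starting at 33 μM.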

LRRK2 (G2019S) = biological target: T2, LRRK2 (G2019S) (Homo sapiens, UniProt Q5S007, G2019S)
T2 construct: purchased Eurofins DiscoverX KINOMEscan
Summary of the method: as §1

ERK4 = biological target: T3, ERK4 (Homo sapiens, UniProt P31152)
T3 construct: purchased Eurofins DiscoverX KINOMEscan
Summary of the method: as §1

CSNK1G3 = biological target: T4, CSNK1G3 (Homo sapiens, UniProt Q9Y6M4)
T4 construct: purchased Eurofins DiscoverX KINOMEscan
Summary of the method: as §1

DRAK1 = biological target: T5, DRAK1 (Homo sapiens, UniProt Q9UEE5)
T5 construct: purchased Eurofins DiscoverX KINOMEscan
Summary of the method: as §1

AURKC = biological target: T6, AURKC (Homo sapiens, UniProt Q9UQB9)
T6 construct: purchased Eurofins DiscoverX KINOMEscan
Summary of the method: as §1

WEE2 = biological target: T7, WEE2 (Homo sapiens, UniProt P0C1S8)
T7 construct: purchased Eurofins DiscoverX KINOMEscan
Summary of the method: as §1

MEK1 = biological target: T8, MEK1 (Homo sapiens, UniProt Q02750)
T8 construct: purchased Eurofins DiscoverX KINOMEscan
Summary of the method: as §1

MUSK = biological target: T9, MUSK (Homo sapiens, UniProt O15146)
T9 construct: purchased Eurofins DiscoverX KINOMEscan
Summary of the method: as §1

TESK1 = biological target: T10, TESK1 (Homo sapiens, UniProt Q15569)
T10 construct: purchased Eurofins DiscoverX KINOMEscan
Summary of the method: as §1

CAMKK2 = biological target: T11, CAMKK2 (Homo sapiens, UniProt Q96RR4)
T11 construct: purchased Eurofins DiscoverX KINOMEscan
Summary of the method: as §1

EGFR = biological target: T12, EGFR (Homo sapiens, UniProt P00533)
T12 construct: purchased Eurofins DiscoverX KINOMEscan
Summary of the method: as §1

EPHB1 = biological target: T13, EPHB1 (Homo sapiens, UniProt P54762)
T13 construct: purchased Eurofins DiscoverX KINOMEscan
Summary of the method: as §1

BMPR2 = biological target: T14, BMPR2 (Homo sapiens, UniProt Q13873)
T14 construct: purchased Eurofins DiscoverX KINOMEscan
Summary of the method: as §1

PIK3CA = biological target: T15, PIK3CA (Homo sapiens, UniProt P42336)
T15 construct: purchased Eurofins DiscoverX KINOMEscan
Summary of the method: as §1

[1] = biological target: T16, RSK3 (Kin. Dom.1-N-term.) (Homo sapiens, UniProt Q15349)
T16 construct: RSK3 (Kin. Dom.1-N-term.); purchased Eurofins DiscoverX KINOMEscan
Summary of the method: as §1

WNK1 = biological target: T17, WNK1 (Homo sapiens, UniProt Q9H4A3)
T17 construct: purchased Eurofins DiscoverX KINOMEscan
Summary of the method: as §1

DDR2 = biological target: T18, DDR2 (Homo sapiens, UniProt Q16832)
T18 construct: purchased Eurofins DiscoverX KINOMEscan
Summary of the method: as §1

ALK (C1156Y) = biological target: T19, ALK (C1156Y) (Homo sapiens, UniProt Q9UM73, C1156Y)
T19 construct: purchased Eurofins DiscoverX KINOMEscan
Summary of the method: as §1

TYRO3 = biological target: T20, TYRO3 (Homo sapiens, UniProt Q06418)
T20 construct: purchased Eurofins DiscoverX KINOMEscan
Summary of the method: as §1

RET = biological target: T21, RET (Homo sapiens, UniProt P07949)
T21 construct: purchased Eurofins DiscoverX KINOMEscan
Summary of the method: as §1

CAMK2A = biological target: T22, CAMK2A (Homo sapiens, UniProt Q9UQM7)
T22 construct: purchased Eurofins DiscoverX KINOMEscan
Summary of the method: as §1

CDC2L2 = biological target: T23, CDC2L2 (Homo sapiens, UniProt Q9UQ88)
T23 construct: purchased Eurofins DiscoverX KINOMEscan
Summary of the method: as §1

AURKB = biological target: T24, AURKB (Homo sapiens, UniProt Q96GD4)
T24 construct: purchased Eurofins DiscoverX KINOMEscan
Summary of the method: as §1

BMPR1A = biological target: T25, BMPR1A (Homo sapiens, UniProt P36894)
T25 construct: purchased Eurofins DiscoverX KINOMEscan
Summary of the method: as §1

SNARK = biological target: T26, SNARK (Homo sapiens, UniProt Q9H093)
T26 construct: purchased Eurofins DiscoverX KINOMEscan
Summary of the method: as §1

ERBB3 = biological target: T27, ERBB3 (Homo sapiens, UniProt P21860)
T27 construct: purchased Eurofins DiscoverX KINOMEscan
Summary of the method: as §1

IKK-α = biological target: T28, IKK-α (Homo sapiens, UniProt O15111)
T28 construct: purchased Eurofins DiscoverX KINOMEscan
Summary of the method: as §1

ROCK1 = biological target: T29, ROCK1 (Homo sapiens, UniProt Q13464)
T29 construct: purchased Eurofins DiscoverX KINOMEscan
Summary of the method: as §1

EGFR (L858R) = biological target: T30, EGFR (L858R) (Homo sapiens, UniProt P00533, L858R)
T30 construct: purchased Eurofins DiscoverX KINOMEscan
Summary of the method: as §1

ERK3 = biological target: T31, ERK3 (Homo sapiens, UniProt Q16659)
T31 construct: purchased Eurofins DiscoverX KINOMEscan
Summary of the method: as §1

PDPK1 = biological target: T32, PDPK1 (Homo sapiens, UniProt O15530)
T32 construct: purchased Eurofins DiscoverX KINOMEscan
Summary of the method: as §1

HIPK4 = biological target: T33, HIPK4 (Homo sapiens, UniProt Q8NE63)
T33 construct: purchased Eurofins DiscoverX KINOMEscan
Summary of the method: as §1

AXL = biological target: T34, AXL (Homo sapiens, UniProt P30530)
T34 construct: purchased Eurofins DiscoverX KINOMEscan
Summary of the method: as §1

TBK1 = biological target: T35, TBK1 (Homo sapiens, UniProt Q9UHD2)
T35 construct: purchased Eurofins DiscoverX KINOMEscan
Summary of the method: as §1

FLT3 = biological target: T36, FLT3 (Homo sapiens, UniProt P36888)
T36 construct: purchased Eurofins DiscoverX KINOMEscan
Summary of the method: as §1

CSNK1A1 = biological target: T37, CSNK1A1 (Homo sapiens, UniProt P48729)
T37 construct: purchased Eurofins DiscoverX KINOMEscan
Summary of the method: as §1

FYN = biological target: T38, FYN (Homo sapiens, UniProt P06241)
T38 construct: purchased Eurofins DiscoverX KINOMEscan
Summary of the method: as §1

CDC2L5 = biological target: T39, CDC2L5 (Homo sapiens, UniProt Q14004)
T39 construct: purchased Eurofins DiscoverX KINOMEscan
Summary of the method: as §1

T10 sequence (Q15569 whole entry): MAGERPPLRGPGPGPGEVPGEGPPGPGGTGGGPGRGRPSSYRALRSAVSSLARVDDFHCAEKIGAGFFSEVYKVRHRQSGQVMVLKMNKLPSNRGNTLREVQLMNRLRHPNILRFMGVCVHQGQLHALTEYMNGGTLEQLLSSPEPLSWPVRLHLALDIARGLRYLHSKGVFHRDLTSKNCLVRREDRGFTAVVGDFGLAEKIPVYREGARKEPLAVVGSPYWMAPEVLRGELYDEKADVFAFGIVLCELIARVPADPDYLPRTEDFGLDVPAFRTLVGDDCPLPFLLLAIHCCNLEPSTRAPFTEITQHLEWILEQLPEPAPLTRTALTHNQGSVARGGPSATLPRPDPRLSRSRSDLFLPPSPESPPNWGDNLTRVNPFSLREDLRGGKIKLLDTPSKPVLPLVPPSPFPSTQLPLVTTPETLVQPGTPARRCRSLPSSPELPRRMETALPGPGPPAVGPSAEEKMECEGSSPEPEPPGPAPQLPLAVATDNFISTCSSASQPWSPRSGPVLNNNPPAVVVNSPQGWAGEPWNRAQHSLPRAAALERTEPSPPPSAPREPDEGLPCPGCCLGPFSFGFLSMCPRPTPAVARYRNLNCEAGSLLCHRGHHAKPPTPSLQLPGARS
T32 sequence (O15530 whole entry): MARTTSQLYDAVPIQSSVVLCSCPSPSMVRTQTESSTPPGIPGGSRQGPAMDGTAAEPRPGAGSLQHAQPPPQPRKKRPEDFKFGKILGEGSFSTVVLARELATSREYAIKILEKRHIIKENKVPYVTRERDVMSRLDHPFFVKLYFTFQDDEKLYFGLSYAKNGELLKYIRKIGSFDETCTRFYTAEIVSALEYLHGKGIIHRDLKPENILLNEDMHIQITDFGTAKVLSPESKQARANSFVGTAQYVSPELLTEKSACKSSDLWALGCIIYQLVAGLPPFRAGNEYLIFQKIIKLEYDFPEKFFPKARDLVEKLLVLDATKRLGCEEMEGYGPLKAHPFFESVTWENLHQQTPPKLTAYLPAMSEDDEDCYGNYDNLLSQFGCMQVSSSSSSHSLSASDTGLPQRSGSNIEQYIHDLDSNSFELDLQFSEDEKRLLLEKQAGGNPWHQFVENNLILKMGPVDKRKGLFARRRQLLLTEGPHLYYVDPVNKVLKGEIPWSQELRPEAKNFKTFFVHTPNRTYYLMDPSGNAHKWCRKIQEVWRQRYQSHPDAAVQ
T18 sequence (Q16832 22-855): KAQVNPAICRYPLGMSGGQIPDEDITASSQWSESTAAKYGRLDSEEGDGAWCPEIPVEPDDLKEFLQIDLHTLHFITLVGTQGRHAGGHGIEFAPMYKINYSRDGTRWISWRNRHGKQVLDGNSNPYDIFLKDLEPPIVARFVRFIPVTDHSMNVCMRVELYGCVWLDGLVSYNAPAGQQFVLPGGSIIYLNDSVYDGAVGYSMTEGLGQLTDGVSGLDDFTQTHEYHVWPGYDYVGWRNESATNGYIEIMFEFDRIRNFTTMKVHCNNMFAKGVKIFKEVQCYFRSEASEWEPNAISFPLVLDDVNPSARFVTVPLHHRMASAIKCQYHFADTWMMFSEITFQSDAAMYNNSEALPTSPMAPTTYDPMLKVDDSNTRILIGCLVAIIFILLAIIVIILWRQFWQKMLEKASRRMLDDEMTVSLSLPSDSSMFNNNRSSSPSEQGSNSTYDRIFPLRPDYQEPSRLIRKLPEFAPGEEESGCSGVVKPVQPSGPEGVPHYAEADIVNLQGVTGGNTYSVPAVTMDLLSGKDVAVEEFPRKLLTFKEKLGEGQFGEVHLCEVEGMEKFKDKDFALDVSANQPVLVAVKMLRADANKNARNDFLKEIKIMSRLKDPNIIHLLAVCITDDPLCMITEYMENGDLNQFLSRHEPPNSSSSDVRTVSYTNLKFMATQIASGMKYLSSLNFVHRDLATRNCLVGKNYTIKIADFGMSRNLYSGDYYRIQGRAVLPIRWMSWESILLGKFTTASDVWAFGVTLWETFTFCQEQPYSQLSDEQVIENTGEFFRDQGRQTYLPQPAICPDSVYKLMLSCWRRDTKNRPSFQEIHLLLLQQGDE
T3 sequence (P31152 whole entry): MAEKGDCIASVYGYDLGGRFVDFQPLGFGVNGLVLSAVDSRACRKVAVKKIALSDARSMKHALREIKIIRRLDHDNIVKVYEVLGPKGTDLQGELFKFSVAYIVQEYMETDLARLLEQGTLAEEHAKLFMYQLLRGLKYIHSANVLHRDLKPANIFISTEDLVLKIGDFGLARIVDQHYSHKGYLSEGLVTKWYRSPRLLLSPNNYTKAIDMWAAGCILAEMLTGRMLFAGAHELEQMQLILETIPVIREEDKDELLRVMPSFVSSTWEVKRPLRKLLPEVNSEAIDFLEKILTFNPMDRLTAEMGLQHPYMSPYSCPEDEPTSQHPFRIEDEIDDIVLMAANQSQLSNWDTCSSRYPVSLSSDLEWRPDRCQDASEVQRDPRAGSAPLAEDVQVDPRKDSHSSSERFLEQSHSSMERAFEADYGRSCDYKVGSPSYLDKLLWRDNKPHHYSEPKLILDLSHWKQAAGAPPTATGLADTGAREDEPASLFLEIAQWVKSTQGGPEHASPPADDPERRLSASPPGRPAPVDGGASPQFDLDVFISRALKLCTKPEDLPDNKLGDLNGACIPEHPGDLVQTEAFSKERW
T23 sequence (Q9UQ88 whole entry): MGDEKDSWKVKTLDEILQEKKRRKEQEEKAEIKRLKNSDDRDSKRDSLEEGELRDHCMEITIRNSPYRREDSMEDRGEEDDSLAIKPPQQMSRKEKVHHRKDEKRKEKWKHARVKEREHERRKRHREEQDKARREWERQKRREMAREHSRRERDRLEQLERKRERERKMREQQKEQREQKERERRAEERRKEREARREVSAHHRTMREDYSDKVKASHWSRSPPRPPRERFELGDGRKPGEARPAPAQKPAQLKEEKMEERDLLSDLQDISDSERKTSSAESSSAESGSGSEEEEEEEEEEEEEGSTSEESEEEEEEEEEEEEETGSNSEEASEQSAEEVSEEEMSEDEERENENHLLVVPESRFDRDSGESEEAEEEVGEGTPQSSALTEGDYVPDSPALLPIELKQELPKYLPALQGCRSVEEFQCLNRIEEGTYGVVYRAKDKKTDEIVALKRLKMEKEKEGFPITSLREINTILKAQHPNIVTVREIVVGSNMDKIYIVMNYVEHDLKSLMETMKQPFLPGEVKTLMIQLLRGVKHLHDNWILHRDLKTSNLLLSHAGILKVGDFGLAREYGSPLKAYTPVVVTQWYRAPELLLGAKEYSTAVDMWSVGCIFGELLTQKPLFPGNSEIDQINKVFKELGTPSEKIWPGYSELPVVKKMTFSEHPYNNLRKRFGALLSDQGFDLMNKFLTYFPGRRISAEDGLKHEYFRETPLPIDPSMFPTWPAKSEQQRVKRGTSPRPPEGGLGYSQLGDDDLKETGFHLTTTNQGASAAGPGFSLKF
T9 sequence (O15146 24-869): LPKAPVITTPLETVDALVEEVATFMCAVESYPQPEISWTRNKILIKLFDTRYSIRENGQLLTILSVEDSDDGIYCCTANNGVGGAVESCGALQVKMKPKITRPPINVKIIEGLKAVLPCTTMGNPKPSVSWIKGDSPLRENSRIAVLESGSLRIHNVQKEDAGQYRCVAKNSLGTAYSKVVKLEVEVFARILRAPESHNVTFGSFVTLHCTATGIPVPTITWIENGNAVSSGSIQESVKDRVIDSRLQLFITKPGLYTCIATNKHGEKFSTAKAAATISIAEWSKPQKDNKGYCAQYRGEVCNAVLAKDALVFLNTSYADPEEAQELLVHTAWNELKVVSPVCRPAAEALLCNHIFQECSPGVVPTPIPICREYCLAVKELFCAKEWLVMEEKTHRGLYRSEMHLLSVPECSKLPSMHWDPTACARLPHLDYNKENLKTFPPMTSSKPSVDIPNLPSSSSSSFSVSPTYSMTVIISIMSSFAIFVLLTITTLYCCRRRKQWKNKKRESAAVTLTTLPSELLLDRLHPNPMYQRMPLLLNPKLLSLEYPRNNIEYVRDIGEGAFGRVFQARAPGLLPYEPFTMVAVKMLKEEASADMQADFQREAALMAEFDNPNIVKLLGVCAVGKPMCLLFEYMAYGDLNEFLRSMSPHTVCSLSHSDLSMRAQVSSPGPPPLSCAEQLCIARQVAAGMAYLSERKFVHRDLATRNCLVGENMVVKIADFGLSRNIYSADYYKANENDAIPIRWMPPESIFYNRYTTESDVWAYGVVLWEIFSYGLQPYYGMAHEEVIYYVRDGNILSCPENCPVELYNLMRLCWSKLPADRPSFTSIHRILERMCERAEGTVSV
T8 sequence (Q02750 whole entry): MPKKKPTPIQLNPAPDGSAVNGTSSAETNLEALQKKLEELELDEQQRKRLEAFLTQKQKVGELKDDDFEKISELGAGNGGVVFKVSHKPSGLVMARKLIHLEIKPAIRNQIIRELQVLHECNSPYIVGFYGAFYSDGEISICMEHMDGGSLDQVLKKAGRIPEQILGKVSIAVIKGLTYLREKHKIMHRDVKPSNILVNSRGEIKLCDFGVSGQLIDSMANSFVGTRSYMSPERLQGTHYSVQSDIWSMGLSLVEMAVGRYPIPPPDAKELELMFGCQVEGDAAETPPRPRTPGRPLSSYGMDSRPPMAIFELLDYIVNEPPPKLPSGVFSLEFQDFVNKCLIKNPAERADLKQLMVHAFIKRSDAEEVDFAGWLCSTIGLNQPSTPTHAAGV
T24 sequence (Q96GD4 whole entry): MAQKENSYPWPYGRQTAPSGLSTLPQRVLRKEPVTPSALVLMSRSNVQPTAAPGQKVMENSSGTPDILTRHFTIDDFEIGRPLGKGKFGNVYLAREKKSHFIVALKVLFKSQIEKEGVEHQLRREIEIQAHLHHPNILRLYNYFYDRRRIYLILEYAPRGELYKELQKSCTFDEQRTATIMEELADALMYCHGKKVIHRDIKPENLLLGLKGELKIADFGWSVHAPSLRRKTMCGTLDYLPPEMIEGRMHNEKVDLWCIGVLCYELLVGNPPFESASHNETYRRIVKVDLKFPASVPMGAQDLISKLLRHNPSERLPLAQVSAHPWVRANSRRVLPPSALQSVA

## O=C1Nc2c(cc([N+](=O)[O-])c3c2CCCC3)C1=NO [Compound 5d, 3-(Hydroxyimino)-5-nitro-1,3,6,7,8,9-hexahydro-2H-benzo[g]indol-2-one]
TAOK3
  inhibition at 10 µM: 65%
LRRK2 (G2019S)
  inhibition at 10 µM: 89%
ERK4
  inhibition at 10 µM: 0%
CSNK1G3
  inhibition at 10 µM: 83%
DRAK1
  inhibition at 10 µM: 76%
AURKC
  inhibition at 10 µM: 39%
WEE2
  inhibition at 10 µM: 0%
MEK1
  inhibition at 10 µM: 93.1%
MUSK
  inhibition at 10 µM: 0%
TESK1
  inhibition at 10 µM: 9%
CAMKK2
  inhibition at 10 µM: 56%
EGFR
  inhibition at 10 µM: 15%
EPHB1
  inhibition at 10 µM: 0%
BMPR2
  inhibition at 10 µM: 64%
PIK3CA
  inhibition at 10 µM: 0%
[1]
  inhibition at 10 µM: 2%
WNK1
  inhibition at 10 µM: 12%
DDR2
  inhibition at 10 µM: 0%
ALK (C1156Y)
  inhibition at 10 µM: 43%
TYRO3
  inhibition at 10 µM: 18%
RET
  inhibition at 10 µM: 8%
CAMK2A
  inhibition at 10 µM: 71%
CDC2L2
  inhibition at 10 µM: 0%
AURKB
  inhibition at 10 µM: 90.7%
BMPR1A
  inhibition at 10 µM: 18%
SNARK
  inhibition at 10 µM: 90%
ERBB3
  inhibition at 10 µM: 0%
IKK-α
  inhibition at 10 µM: 52%
ROCK1
  inhibition at 10 µM: 61%
EGFR (L858R)
  inhibition at 10 µM: 17%
ERK3
  inhibition at 10 µM: 0%
PDPK1
  inhibition at 10 µM: 8%
HIPK4
  inhibition at 10 µM: 63%
AXL
  inhibition at 10 µM: 17%
TBK1
  inhibition at 10 µM: 46%
FLT3
  inhibition at 10 µM: 12%
CSNK1A1
  inhibition at 10 µM: 93.5%
FYN
  inhibition at 10 µM: 0%
CDC2L5
  inhibition at 10 µM: 13%
